Measurements from patent US20240034731A1, “AZA-QUINAZOLINE COMPOUNDS AND METHODS OF USE” (Iambic Therapeutics, Inc., priority 2022, published 2024).

How the values were obtained:
CDK2/Cyclin E1 = CDK2/Cyclin E1 (Homo sapiens (Human), UniProt P24941); assay: CDK2/Cyclin E1 Full length ADP-Glo Kinase Assay; type: biochemical; details: 20 uM ATP, read-out: CDK2/ CyclinE1 IC50
Procedure: CDK2/Cyclin E1 Full length ADP-Glo Kinase Assay
(§1) The purpose of CDK2/Cyclin E1 assay is to evaluate the inhibition (% inhibition and IC50 values) of small molecule inhibitors by using a Luminescent based ADP-Glo assay. CDK2/Cyclin E1 full length catalyzes the production of ADP from ATP. ADP-Glo assay monitors ADP producing biochemical reactions. ADP-Glo is performed in 2 steps upon completion of kinase reaction: a combined termination of kinase reaction and depletion of remaining ATP in the first step, and conversion of generated ADP to ATP and the newly produced ATP to light output using luciferase/luciferin reaction in the second step. The luminescent signal generated is proportional to the ADP concentration produced and is correlated with the kinase activity. CDK2/Cyclin E1 was purchased from Eurofins (Cat 14-475M). […] The assay was initiated with the addition of ATP-containing substrate solution, following a 30-minute pre-incubation of enzyme and inhibitor at room temperature in the reaction mixture. The reaction was stopped after 90 minutes at room temperature by the addition of 10 uL of ADP-GLO Reagent. After a 90 minute incubation, 20 uL of Kinase Detection Reagent was added. Samples were incubated for 40 minutes, after which plate well luminescence was measured on a Envision microplate reader. The IC50 determinations were made from a plot of the fractional velocity as a function of inhibitor concentration fit to the 4 parameters IC50 equation.

CDK4/Cyclin D1 = CDK4/Cyclin D1 (Homo sapiens (Human), UniProt P11802); assay: CDK4/Cyclin D1 CHEF Assay (AQT0258 peptide); type: biochemical; details: 200 uM ATP, read-out: CDK4/ CyclinD1 AQT IC50
Excerpt: CDK4/Cyclin D1 CHEF Assay
The purpose of CDK4/Cyclin D1 assay is to evaluate the inhibition (% inhibition and IC50 values) of small molecule inhibitors by using a Chelation-Enhance Fluorescence (CHEF) assay. In a CHEF assay, phosphorylation of a peptide substrate results in proportional increase in fluorescence. CHEF kinase assay use peptide substrates containing a synthetic alpha-amino acid with a side chain bearing an 8-hydroxyquinoline derivative (sulfonamido-oxide, Sox). Upon phosphorylation of a nearby serine, threonine or tyrosine and in the presence of Mg(II), the spectral properties of the Sox residue are altered, emitting 485 nm wavelength light when excited with a 360 nm wavelength light source. CDK4/Cyclin D1 catalyzes the phosphoryl transfer to the SOX-labeled substrate peptide AQT0258 from Assayquant Technologies. […] The reaction was initiated with the addition of substrate solution, following a 30-minute pre-incubation of enzyme and inhibitor at 22° C. in the reaction mix. Reactions were allowed to proceed for 3 hrs at 22° C., followed by fluorescence read of the reaction. The IC50 determinations were made from a plot of the fractional velocity as a function of inhibitor concentration fit to the 4 parameters IC50 equation.

CDK6/Cyclin D3 = CDK6/Cyclin D3 (Homo sapiens (Human), UniProt Q00534); assay: CDK6/Cyclin D3 ADP-Glo Kinase Assay; type: biochemical; details: 100 uM ATP, read-out: CDK6/ CyclinD3 IC50
Procedure: CDK6/Cyclin D3 ADP-Glo Kinase Assay
The purpose of the CDK6/Cyclin D3 assay is to evaluate the inhibition (% inhibition and IC50 values) in the presence of small molecule inhibitors by using a Luminescent based ADP-Glo assay. CDK6/Cyclin D3 catalyzes the production of ADP from ATP. ADP-Glo assay monitors ADP producing biochemical reactions. ADP-Glo is performed in 2 steps upon completion of kinase reaction: a combined termination of kinase reaction and depletion of remaining ATP in the first step, and conversion of generated ADP to […] and the newly produced ATP to light output using luciferase/luciferin reaction in the second step. The luminescent signal generated is proportional to the ADP concentration produced and is correlated with the kinase activity CDK6/Cyclin D3 was purchased from Carna. […] The assay was initiated with the addition of ATP-containing substrate solution, following a 30-minute pre-incubation of enzyme and inhibitor at room temperature in the reaction mixture. The reaction was stopped after 90 minutes at room temperature by the addition of 10 uL of ADP-GLO Reagent. After a 90-minute incubation, 20 uL of Kinase Detection Reagent was added. Samples were incubated for 40 minutes, after which plate well luminescence was measured on a Envision microplate reader. The IC50 determinations were made from a plot of the fractional velocity as a function of inhibitor concentration fit to the 4 parameters IC50 equation.

CDK1/Cyclin B1 = CDK1/Cyclin B1 (Homo sapiens (Human), UniProt P06493); assay: CDK1/Cyclin B1 ADP-Glo Kinase Assay; type: biochemical; details: ADP-Glo, 80 uM ATP; read-out: CDK1 Cyclin B1 IC50
Procedure: CDK1/Cyclin B1 ADP-Glo Kinase Assay
as §1, with “CDK1/Cyclin B1” for “CDK2/Cyclin E1”, “CDK1/Cyclin B1” for “CDK2/Cyclin E1 full length”, “Carna” for “Eurofins”, “04-102).” for “14-475M).”

MCF-7 cells = assay: Cell Growth Inhibition, MCF-7 (CellTiterGlo, 6 days); type: cell-based; details: Homo sapiens, MCF7, 144 h, MCF-7, 6-day treatment
Excerpt: (§2) MCF-7 and OVCAR-3 cells were used to evaluate the anti-proliferation activity of the CDK inhibitors. MCF-7 (ATCC, HTB-22) cells are epithelial cells from a patient with ER+ metastatic adenocarcinoma. OVCAR-3 (ATCC, HTB-161) cells were derived from malignant ascites of a patient with ovarian cancer and are known to have CCNE1 amplification. Both cell lines were maintained in RPMI media supplemented with 10% fetal bovine serum. For cell growth inhibition assay, CDK inhibitors in DMSO solution were dispensed with either Echo 655 (Beckman Coulter) or Tecan D300e (HP) into 384-well plates (Corning #3765) and the 384-well plates were UV-sterilized prior to the assay. The inhibitors were typically tested in the 10-10,000 nM concentration range with half-log serial dilutions. MCF-7 or OVCAR-3 (500 cells/30 μL/well) were added to each well using Multidrop Combi (ThermoFisher) using standard cassettes. The assay plates with cells were cultured at 37° C., 5% CO2 for 6 days. At the end of the 6-day treatment, 30 μL of CellTiterGlo 2.0 (Promega) was added to each well and the luminescent signal was read using CLARIOstar plus (BMG). The percentage of cell growth inhibition (% CGI) was calculated using the following formula 00 CGI=100-100×luminescencesampie/luminescencecontroi. The half maximal inhibitory concentration (IC50) was determined by nonlinear curve fitting (four parameters, variable slope).

OVCAR-3 cells = assay: Cell Growth Inhibition, OVCAR-3 (CellTiterGlo, 6 days); type: cell-based; details: Homo sapiens, 144 h, OVCAR-3, 6-day treatment
Excerpt: as §2

CDK4/Cyclin D1, sequence (P11802 whole entry): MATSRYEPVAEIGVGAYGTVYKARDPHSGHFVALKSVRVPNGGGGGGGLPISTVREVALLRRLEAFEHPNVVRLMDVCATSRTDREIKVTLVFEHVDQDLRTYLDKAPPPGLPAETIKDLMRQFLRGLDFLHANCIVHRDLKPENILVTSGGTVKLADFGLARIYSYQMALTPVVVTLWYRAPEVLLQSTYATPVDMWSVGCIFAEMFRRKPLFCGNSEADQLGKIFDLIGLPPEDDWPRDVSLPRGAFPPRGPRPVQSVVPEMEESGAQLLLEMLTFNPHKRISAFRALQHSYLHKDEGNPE
CDK4/Cyclin D1, sequence (P24385 whole entry partner): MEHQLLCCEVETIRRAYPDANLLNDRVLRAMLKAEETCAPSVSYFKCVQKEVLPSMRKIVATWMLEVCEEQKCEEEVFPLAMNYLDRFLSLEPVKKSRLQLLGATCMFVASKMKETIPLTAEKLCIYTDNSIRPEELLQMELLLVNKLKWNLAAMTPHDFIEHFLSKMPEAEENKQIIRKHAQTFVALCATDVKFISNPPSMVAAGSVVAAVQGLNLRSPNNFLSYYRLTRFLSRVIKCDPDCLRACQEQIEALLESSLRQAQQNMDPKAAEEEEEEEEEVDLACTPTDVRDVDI
CDK1/Cyclin B1, sequence (P06493 whole entry): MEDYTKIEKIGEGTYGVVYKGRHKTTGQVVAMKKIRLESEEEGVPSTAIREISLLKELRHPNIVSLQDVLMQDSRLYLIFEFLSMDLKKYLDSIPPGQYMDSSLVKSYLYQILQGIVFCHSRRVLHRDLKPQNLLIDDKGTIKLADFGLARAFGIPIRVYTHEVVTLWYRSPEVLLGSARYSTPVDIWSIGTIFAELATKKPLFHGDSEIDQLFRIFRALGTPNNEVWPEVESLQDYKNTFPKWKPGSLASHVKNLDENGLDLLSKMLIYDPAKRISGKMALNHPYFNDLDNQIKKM
CDK1/Cyclin B1, sequence (P14635 whole entry partner): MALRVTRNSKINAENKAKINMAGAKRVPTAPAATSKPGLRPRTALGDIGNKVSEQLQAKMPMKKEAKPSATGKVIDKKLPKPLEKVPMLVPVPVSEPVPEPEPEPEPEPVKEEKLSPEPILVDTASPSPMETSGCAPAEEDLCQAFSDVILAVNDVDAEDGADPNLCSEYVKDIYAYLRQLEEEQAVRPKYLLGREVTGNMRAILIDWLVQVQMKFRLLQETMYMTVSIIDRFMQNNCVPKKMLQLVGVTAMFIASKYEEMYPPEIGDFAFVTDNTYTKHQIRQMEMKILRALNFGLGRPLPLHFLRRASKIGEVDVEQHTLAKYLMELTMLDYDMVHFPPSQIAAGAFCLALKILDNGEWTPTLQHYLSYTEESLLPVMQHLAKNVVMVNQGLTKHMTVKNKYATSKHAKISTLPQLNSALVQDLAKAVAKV
CDK6/Cyclin D3, sequence (Q00534 whole entry): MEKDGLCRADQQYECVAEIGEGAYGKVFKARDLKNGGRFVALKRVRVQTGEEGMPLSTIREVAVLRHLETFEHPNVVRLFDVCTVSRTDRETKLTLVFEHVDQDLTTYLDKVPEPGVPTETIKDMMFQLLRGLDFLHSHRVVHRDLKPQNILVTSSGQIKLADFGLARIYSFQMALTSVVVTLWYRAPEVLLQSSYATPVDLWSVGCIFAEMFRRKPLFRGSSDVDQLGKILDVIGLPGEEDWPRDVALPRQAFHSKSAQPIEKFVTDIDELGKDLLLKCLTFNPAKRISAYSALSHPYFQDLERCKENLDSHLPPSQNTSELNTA
CDK6/Cyclin D3, sequence (P30281 whole entry partner): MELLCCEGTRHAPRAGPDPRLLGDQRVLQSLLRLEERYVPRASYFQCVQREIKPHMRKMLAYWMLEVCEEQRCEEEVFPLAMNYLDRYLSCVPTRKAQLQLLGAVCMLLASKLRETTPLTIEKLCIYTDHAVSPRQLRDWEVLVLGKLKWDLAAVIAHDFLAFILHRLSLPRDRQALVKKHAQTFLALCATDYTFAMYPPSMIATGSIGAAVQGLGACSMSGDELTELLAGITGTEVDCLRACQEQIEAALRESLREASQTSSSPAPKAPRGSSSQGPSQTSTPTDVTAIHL

Row | Structure (SMILES) | IC50 (CDK2/Cyclin E1) [nM] | IC50 (CDK4/Cyclin D1) [nM] | IC50 (CDK6/Cyclin D3) [nM] | IC50 (CDK1/Cyclin B1) [nM] | IC50 (MCF-7 cells) [nM] | IC50 (OVCAR-3 cells) [nM]
1 | [2H]C([2H])([2H])N1CC2(CN(c3nc(C)cc4cnc(NC5CCN(S(=O)(=O)C6CC6)CC5)nc34)CC2(F)F)C1 [Compound 13, N-(1-(cyclopropylsulfonyl)piperidin-4-yl)-8-(8,8-difluoro-2-(methyl-d3)-2,6-diazaspiro[3.4]octan-6-yl)-6-methylpyrido[3,4-d]pyrimidin-2-amine] | < 200 | < 200 | < 200 | < 200 | – | –
2 | CS(=O)(=O)N1CCC(Nc2ncc3ccnc(N4C[C@H]5c6ccccc6S(=O)(=O)[C@H]5C4)c3n2)CC1 [Compound 16, (3aR,8bR)-2-(2-((1-(methylsulfonyl)piperidin-4-yl)amino)pyrido[3,4-d]pyrimidin-8-yl)-2,3,3a,8b-tetrahydro-1H-benzo[4,5]thieno[2,3-c]pyrrole 4,4-dioxide] | – | – | – | < 200 | 500 to 2000 | 500 to 2000
3 | Cc1cc2cnc(NC3CCN(S(=O)(=O)C4CC4)CC3)nc2c(N2CC(C#N)(CCF)C2)n1 [Compound 68, 1-(2-((1-(cyclopropylsulfonyl)piperidin-4-yl)amino)-6-methylpyrido[3,4-d]pyrimidin-8-yl)-3-(2-fluoroethyl)azetidine-3-carbonitrile] | < 200 | 200 to 500 | 500 to 2000 | > 2000 | – | –
4 | Cc1cc2cnc(NC3CCN(S(C)(=O)=O)CC3)nc2c(C2CC(C)(CO)C2)n1 (stereo not drawn) [Compound 69, (1-methyl-3-(6-methyl-2-((1-(methylsulfonyl)piperidin-4-yl)amino)pyrido[3,4-d]pyrimidin-8-yl)cyclobutyl)methanol] | < 200 | < 200 | < 200 | < 200 | – | –
5 | Cc1cc2cnc(NC3CCN(S(C)(=O)=O)CC3)nc2c(N2CC3(CCC(=O)NC3)C2)n1 [Compound 82, 2-(6-methyl-2-((1-(methylsulfonyl)piperidin-4-yl)amino)pyrido[3,4-d]pyrimidin-8-yl)-2,6-diazaspiro[3.5]nonan-7-one] | < 200 | 200 to 500 | 200 to 500 | 200 to 500 | – | –
6 | Cc1cc2cnc(NC3CCN(S(C)(=O)=O)CC3)nc2c(C2CC3(CNCC3(F)F)C2)n1 (stereo not drawn) [Compound 99, 8-(8,8-difluoro-6-azaspiro[3.4]octan-2-yl)-6-methyl-N-(1-(methylsulfonyl)piperidin-4-yl)pyrido[3,4-d]pyrimidin-2-amine] | < 200 | < 200 | < 200 | < 200 | – | –

The remaining lines, values ahead:

Row | IC50 (CDK2/Cyclin E1) [nM] | IC50 (CDK4/Cyclin D1) [nM] | IC50 (CDK6/Cyclin D3) [nM] | IC50 (CDK1/Cyclin B1) [nM] | IC50 (MCF-7 cells) [nM] | IC50 (OVCAR-3 cells) [nM] | Structure (SMILES)
7 | – | – | – | > 2000 | 500 to 2000 | 500 to 2000 | Cc1cc2cnc(NC3CCN(S(C)(=O)=O)CC3)nc2c(N2CC3(C2)CN(C2CC2)C3)n1 [Compound 42, 8-(6-cyclopropyl-2,6-diazaspiro[3.3]heptan-2-yl)-6-methyl-N-(1-(methylsulfonyl)piperidin-4-yl)pyrido[3,4-d]pyrimidin-2-amine]
8 | < 200 | < 200 | 200 to 500 | 200 to 500 | – | – | Cc1cc2cnc(NC3CCN(S(C)(=O)=O)CC3)nc2c(N2CC3(CNC(=O)C3)C2)n1 [Compound 81, 2-(6-methyl-2-((1-(methylsulfonyl)piperidin-4-yl)amino)pyrido[3,4-d]pyrimidin-8-yl)-2,6-diazaspiro[3.4]octan-7-one]
9 | < 200 | < 200 | 200 to 500 | 200 to 500 | – | – | Cc1cc2cnc(NC3CCN(S(C)(=O)=O)CC3)nc2c(N2CC3(CNCC3F)C2)n1 (stereo not drawn) [Compound 98, 8-(8-fluoro-2,6-diazaspiro[3.4]octan-2-yl)-6-methyl-N-(1-(methylsulfonyl)piperidin-4-yl)pyrido[3,4-d]pyrimidin-2-amine]
10 | < 200 | < 200 | < 200 | < 200 | – | – | Cc1cc2cnc(NC3CCN(S(C)(=O)=O)CC3)nc2c(N2CC3(CNCC3C(F)F)C2)n1 (stereo not drawn) [Compound 100, 8-(8-(difluoromethyl)-2,6-diazaspiro[3.4]octan-2-yl)-6-methyl-N-(1-(methylsulfonyl)piperidin-4-yl)pyrido[3,4-d]pyrimidin-2-amine]
11 | – | < 200 | < 200 | – | – | – | Cc1cc2cnc(NC3CCN(S(C)(=O)=O)CC3)nc2c(N2CC3(CN(C)C[C@@H]3F)C2)n1 [Compound 103, (R)-8-(8-fluoro-6-methyl-2,6-diazaspiro[3.4]octan-2-yl)-6-methyl-N-(1-(methylsulfonyl)piperidin-4-yl)pyrido[3,4-d]pyrimidin-2-amine]
12 | – | < 200 | 200 to 500 | – | – | – | Cc1cc2cnc(NC3CCN(S(C)(=O)=O)CC3)nc2c(N2CC3(CN(C)C[C@H]3F)C2)n1 [Compound 104, (S)-8-(8-fluoro-6-methyl-2,6-diazaspiro[3.4]octan-2-yl)-6-methyl-N-(1-(methylsulfonyl)piperidin-4-yl)pyrido[3,4-d]pyrimidin-2-amine]
